How the values were obtained:
[1] = target: T1, KDR (Homo sapiens, UniProt P35968); test: KDR HTRF in vitro kinase assay; type: biochemical; design: purified enzyme (His6-KDR 789-1354, MW 63 kD); His6 (N); conditions: 1 mM ATP; read-out: KDR enzyme inhibition data (Ki)
How it was run: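 His6-KDR 789-1354 (7 ng/well) with 0.5 μM biotinylated peptide substrate and 1 mM ATP in HEPES pH 7.1, MgCl2/MnCl2, 60 min at room temperature. EDTA-quenched, detected by streptavidin-XL-665 plus Eu-kryptate anti-phosphotyrosine HTRF after 3 h; IC50 from 620/665 nm ratio.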
Target sequence in this assay (P35968 789-1354): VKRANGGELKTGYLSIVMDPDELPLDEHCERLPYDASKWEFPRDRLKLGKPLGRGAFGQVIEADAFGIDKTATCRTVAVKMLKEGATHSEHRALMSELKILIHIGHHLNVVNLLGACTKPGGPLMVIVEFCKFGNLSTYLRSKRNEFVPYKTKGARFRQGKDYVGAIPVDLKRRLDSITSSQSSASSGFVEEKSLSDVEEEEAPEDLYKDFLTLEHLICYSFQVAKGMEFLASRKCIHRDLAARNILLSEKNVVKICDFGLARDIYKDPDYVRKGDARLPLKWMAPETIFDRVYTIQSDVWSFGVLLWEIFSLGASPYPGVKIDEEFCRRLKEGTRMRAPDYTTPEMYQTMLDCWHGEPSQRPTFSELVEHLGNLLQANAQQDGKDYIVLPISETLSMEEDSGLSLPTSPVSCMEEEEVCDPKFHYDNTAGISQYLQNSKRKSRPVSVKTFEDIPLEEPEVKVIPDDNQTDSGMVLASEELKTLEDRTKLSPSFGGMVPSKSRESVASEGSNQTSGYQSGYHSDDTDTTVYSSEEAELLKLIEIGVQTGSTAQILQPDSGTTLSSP

[2] = target: T2, Aurora B (Homo sapiens, UniProt Q96GD4); test: Aurora B enzyme inhibition (time-resolved fluorescence, histone H3 peptide); type: biochemical; conditions: 1 mM ATP
T2 construct: Active Aurora B enzyme (recombinant residues 1-344)
T2 sequence (Q96GD4 whole entry, the tested form may be a part): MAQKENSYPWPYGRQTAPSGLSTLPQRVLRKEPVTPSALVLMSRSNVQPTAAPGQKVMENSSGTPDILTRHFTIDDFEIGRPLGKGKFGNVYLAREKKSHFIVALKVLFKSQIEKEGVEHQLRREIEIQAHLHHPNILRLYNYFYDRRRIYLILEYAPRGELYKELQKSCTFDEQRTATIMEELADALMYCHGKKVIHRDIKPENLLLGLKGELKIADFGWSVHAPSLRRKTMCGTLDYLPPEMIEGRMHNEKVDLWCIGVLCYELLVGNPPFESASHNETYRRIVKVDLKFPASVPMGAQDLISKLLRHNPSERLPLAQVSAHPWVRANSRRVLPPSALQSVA
T2 sequence (Q9NQS7 826-918 partner limits assumed): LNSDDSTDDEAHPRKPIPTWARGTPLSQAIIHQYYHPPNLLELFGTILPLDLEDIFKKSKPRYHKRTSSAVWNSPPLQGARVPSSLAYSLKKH
How it was run: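 Recombinant Aurora B (residues 1-344) with GST-INCENP phosphorylated biotinylated histone H3 (1-21) peptide at 1 mM ATP in HEPES pH 7.4 with MgCl2, orthovanadate and Triton X-100 for 1 h. After EDTA stop, the phosphopeptide was detected by TR-FRET (Eu-cryptate anti-phospho-H3 / SA-APC, 665/615 nm ratio). IC50 from an exponential fit.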

[3] = target: T1, KDR; test: KDR cellular assay (KDR receptor phosphorylation ELISA); type: cell-based; design: expressed in transfected cells; host or cells: 3T3 (embryonic mouse) cells; conditions: KDR transfected 3T3 (embryonic mouse) cells, VEGF stimulated; read-out: IC50 inhibition of KDR phosphorylation
How it was run: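 KDR-transfected mouse 3T3 cells treated 20 min at 37° C with half-log compound dilutions, then stimulated 10 min with VEGF (100 ng/ml solution). Lysates captured on anti-KDR plates; phosphorylation by biotin antibody/streptavidin-HRP ELISA at 450 nm. IC50 by non-linear regression.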
Target sequence in this assay (P35968 20-1356): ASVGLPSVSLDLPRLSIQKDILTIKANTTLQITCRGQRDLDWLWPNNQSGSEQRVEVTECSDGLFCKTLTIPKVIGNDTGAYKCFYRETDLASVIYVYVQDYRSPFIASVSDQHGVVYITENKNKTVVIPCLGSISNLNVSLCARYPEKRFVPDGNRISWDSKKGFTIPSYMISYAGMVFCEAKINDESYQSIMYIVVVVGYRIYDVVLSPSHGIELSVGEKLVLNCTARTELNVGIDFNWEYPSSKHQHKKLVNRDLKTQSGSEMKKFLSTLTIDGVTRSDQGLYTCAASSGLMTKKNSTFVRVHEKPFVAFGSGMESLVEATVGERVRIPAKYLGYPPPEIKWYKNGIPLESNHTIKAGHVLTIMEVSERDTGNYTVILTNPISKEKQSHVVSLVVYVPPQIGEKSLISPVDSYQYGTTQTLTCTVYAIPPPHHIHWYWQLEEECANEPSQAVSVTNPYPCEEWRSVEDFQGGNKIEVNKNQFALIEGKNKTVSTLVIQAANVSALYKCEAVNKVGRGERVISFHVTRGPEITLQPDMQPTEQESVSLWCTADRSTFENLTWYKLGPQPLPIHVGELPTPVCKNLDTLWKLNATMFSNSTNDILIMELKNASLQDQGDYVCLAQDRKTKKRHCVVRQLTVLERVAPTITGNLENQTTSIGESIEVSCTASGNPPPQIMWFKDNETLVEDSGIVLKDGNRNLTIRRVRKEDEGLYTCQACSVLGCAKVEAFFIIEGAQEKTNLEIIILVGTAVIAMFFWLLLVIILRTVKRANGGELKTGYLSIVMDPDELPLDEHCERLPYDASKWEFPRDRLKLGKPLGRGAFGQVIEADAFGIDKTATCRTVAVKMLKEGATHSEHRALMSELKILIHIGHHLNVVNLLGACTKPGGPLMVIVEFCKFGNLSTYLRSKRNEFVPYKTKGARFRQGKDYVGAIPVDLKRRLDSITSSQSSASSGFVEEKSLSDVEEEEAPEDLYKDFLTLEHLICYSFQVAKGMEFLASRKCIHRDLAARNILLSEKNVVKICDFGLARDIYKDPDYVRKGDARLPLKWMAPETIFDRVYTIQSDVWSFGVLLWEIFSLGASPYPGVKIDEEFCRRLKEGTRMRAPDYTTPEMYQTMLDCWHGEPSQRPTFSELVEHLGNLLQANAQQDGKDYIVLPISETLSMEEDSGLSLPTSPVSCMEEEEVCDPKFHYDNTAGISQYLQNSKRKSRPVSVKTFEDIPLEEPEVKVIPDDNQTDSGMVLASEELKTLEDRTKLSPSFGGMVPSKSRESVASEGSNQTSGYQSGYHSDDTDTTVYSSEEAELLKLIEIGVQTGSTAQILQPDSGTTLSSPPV

| Ki [1] [nM] | Ki [2] [nM] | IC50 [3] [nM] | Structure (SMILES) |
| --- | --- | --- | --- |
| < 100 | < 100 | 100 to 1000 | Cn1cc(Nc2ncc(C(F)(F)F)c(Nc3ccccc3C3(O)CNC3)n2)cn1 [Example 109, 3-[2-({2-[(1-methyl-1H-pyrazol-4-yl)amino]-5-(trifluoromethyl)pyrimidin-4-yl}amino)phenyl]azetidin-3-ol] |
| < 100 | < 100 | < 100 | COCCOCCn1cc(Nc2ncc(Br)c(N[C@H]3[C@@H](C(N)=O)[C@@H]4C=C[C@H]3C4)n2)cn1 [Example 110, (1S,2S,3R,4R)-3-{[5-bromo-2-({1-[2-(2-methoxyethoxy)ethyl]-1H-pyrazol-4-yl}amino)pyrimidin-4-yl]amino}bicyclo[2.2.1]hept-5-ene-2-carboxamide] |
| < 100 | < 100 | < 100 | CC(C)CCn1cc(Nc2ncc(Br)c(N[C@H]3[C@@H](C(N)=O)[C@@H]4C=C[C@H]3C4)n2)cn1 [Example 111, (1S,2S,3R,4R)-3-[(5-bromo-2-{[1-(3-methylbutyl)-1H-pyrazol-4-yl]amino}pyrimidin-4-yl)amino]bicyclo[2.2.1]hept-5-ene-2-carboxamide] |
| < 100 | < 100 | < 100 | CC(C)n1cc(Nc2ncc(Br)c(N[C@H]3[C@@H](C(N)=O)[C@@H]4C=C[C@H]3C4)n2)cn1 [Example 112, (1S,2S,3R,4R)-3-({5-bromo-2-[(1-isopropyl-1H-pyrazol-4-yl)amino]pyrimidin-4-yl}amino)bicyclo[2.2.1]hept-5-ene-2-carboxamide] |
| < 100 | < 100 | 100 to 1000 | Cn1cc(Nc2ncc(C(F)(F)F)c(Nc3ccccc3C3(O)CCC3)n2)cn1 [Example 115, 1-[2-({2-[(1-methyl-1H-pyrazol-4-yl)amino]-5-(trifluoromethyl)pyrimidin-4-yl}amino)phenyl]cyclobutanol] |
| < 100 | < 100 | < 100 | NC(=O)[C@@H]1[C@H](Nc2nc(Nc3cnn([C@@H]4CCOC4)c3)ncc2Br)[C@H]2C=C[C@@H]1C2 [Example 116, (1S,2S,3R,4R)-3-{[5-bromo-2-({1-[(3R)-tetrahydrofuran-3-yl]-1H-pyrazol-4-yl}amino)pyrimidin-4-yl]amino}bicyclo[2.2.1]hept-5-ene-2-carboxamide] |
| < 100 | < 100 | < 100 | NC(=O)[C@@H]1[C@H](Nc2nc(Nc3cnn([C@H]4CCOC4)c3)ncc2Br)[C@H]2C=C[C@@H]1C2 [Example 117, (1S,2S,3R,4R)-3-{[5-bromo-2-({1-[(3S)-tetrahydrofuran-3-yl]-1H-pyrazol-4-yl}amino)pyrimidin-4-yl]amino}bicyclo[2.2.1]hept-5-ene-2-carboxamide] |
| < 100 | < 100 | < 100 | NC(=O)[C@@H]1[C@H](Nc2nc(Nc3cnn(C4CCC4)c3)ncc2Cl)[C@H]2C=C[C@@H]1C2 [Example 118, (1S,2S,3R,4R)-3-({5-chloro-2-[(1-cyclobutyl-1H-pyrazol-4-yl)amino]pyrimidin-4-yl}amino)bicyclo[2.2.1]hept-5-ene-2-carboxamide] |
| < 100 | < 100 | 100 to 1000 | CS(=O)(=O)CCn1cc(Nc2ncc(Cl)c(N[C@H]3[C@@H](C(N)=O)[C@@H]4C=C[C@H]3C4)n2)cn1 [Example 119, (1S,2S,3R,4R)-3-{[5-chloro-2-({1-[2-(methylsulfonyl)ethyl]-1H-pyrazol-4-yl}amino)pyrimidin-4-yl]amino}bicyclo[2.2.1]hept-5-ene-2-carboxamide] |
| < 100 | < 100 | < 100 | CS(=O)(=O)CCn1cc(Nc2ncc(Br)c(N[C@H]3[C@@H](C(N)=O)[C@@H]4C=C[C@H]3C4)n2)cn1 [Example 122, (1S,2S,3R,4R)-3-{[5-bromo-2-({1-[2-(methylsulfonyl)ethyl]-1H-pyrazol-4-yl}amino)pyrimidin-4-yl]amino}bicyclo[2.2.1]hept-5-ene-2-carboxamide] |
| < 100 | < 100 | < 100 | NC(=O)[C@@H]1[C@H](Nc2nc(Nc3cnn(C4CCC4)c3)ncc2Br)[C@H]2C=C[C@@H]1C2 [Example 123, (1S,2S,3R,4R)-3-({5-bromo-2-[(1-cyclobutyl-1H-pyrazol-4-yl)amino]pyrimidin-4-yl}amino)bicyclo[2.2.1]hept-5-ene-2-carboxamide] |
| < 100 | < 100 | 100 to 1000 | NC(=O)[C@@H]1[C@H](Nc2nc(Nc3cnn(C[C@H](O)CO)c3)ncc2Cl)[C@H]2C=C[C@@H]1C2 [Example 124, (1S,2S,3R,4R)-3-{[5-chloro-2-({1-[(2S)-2,3-dihydroxypropyl]-1H-pyrazol-4-yl}amino)pyrimidin-4-yl]amino}bicyclo[2.2.1]hept-5-ene-2-carboxamide] |
| < 100 | < 100 | < 100 | NC(=O)[C@@H]1[C@H](Nc2nc(Nc3cnn(CC4CCO4)c3)ncc2Cl)[C@H]2C=C[C@@H]1C2 (stereo partly drawn) [Example 129, (1S,2S,3R,4R)-3-[(5-chloro-2-{[1-(oxetan-2-ylmethyl)-1H-pyrazol-4-yl]amino}pyrimidin-4-yl)amino]bicyclo[2.2.1]hept-5-ene-2-carboxamide] |
| < 100 | < 100 | 100 to 1000 | NC(=O)[C@@H]1[C@H](Nc2nc(Nc3cnn(C[C@@H](O)CO)c3)ncc2Cl)[C@H]2C=C[C@@H]1C2 [Example 130, (1S,2S,3R,4R)-3-{[5-chloro-2-({1-[(2R)-2,3-dihydroxypropyl]-1H-pyrazol-4-yl}amino)pyrimidin-4-yl]amino}bicyclo[2.2.1]hept-5-ene-2-carboxamide] |
| < 100 | < 100 | 100 to 1000 | NC(=O)[C@@H]1[C@H](Nc2nc(Nc3cnn(C[C@H](O)CO)c3)ncc2Br)[C@H]2C=C[C@@H]1C2 [Example 131, (1S,2S,3R,4R)-3-{[5-bromo-2-({1-[(2S)-2,3-dihydroxypropyl]-1H-pyrazol-4-yl}amino)pyrimidin-4-yl]amino}bicyclo[2.2.1]hept-5-ene-2-carboxamide] |
| < 100 | < 100 | 100 to 1000 | Cn1cc(Nc2ncc(Br)c(Nc3ccccc3C3(O)CCC3)n2)cn1 [Example 132, 1-[2-({5-bromo-2-[(1-methyl-1H-pyrazol-4-yl)amino]pyrimidin-4-yl}amino)phenyl]cyclobutanol] |
| < 100 | < 100 | 100 to 1000 | Cc1nn(C)cc1Nc1ncc(Cl)c(N[C@H]2[C@@H](C(N)=O)[C@@H]3C=C[C@H]2C3)n1 [Example 134, (1S,2S,3R,4R)-3-({5-chloro-2-[(1,3-dimethyl-1H-pyrazol-4-yl)amino]pyrimidin-4-yl}amino)bicyclo[2.2.1]hept-5-ene-2-carboxamide] |
| < 100 | < 100 | < 100 | Cc1nn(C)cc1Nc1ncc(Br)c(N[C@H]2[C@@H](C(N)=O)[C@@H]3C=C[C@H]2C3)n1 [Example 135, (1S,2S,3R,4R)-3-({5-bromo-2-[(1,3-dimethyl-1H-pyrazol-4-yl)amino]pyrimidin-4-yl}amino)bicyclo[2.2.1]hept-5-ene-2-carboxamide] |
| < 100 | < 100 | 100 to 1000 | Cn1cc(Nc2ncc([N+](=O)[O-])c(N[C@H]3[C@@H](C(N)=O)[C@@H]4C=C[C@H]3C4)n2)cn1 [Example 139, (1S,2S,3R,4R)-3-({2-[(1-methyl-1H-pyrazol-4-yl)amino]-5-nitropyrimidin-4-yl}amino)bicyclo[2.2.1]hept-5-ene-2-carboxamide] |
| < 100 | < 100 | 100 to 1000 | CCn1cc(Nc2ncc([N+](=O)[O-])c(N[C@H]3[C@@H](C(N)=O)[C@@H]4C=C[C@H]3C4)n2)cn1 [Example 140, (1S,2S,3R,4R)-3-({2-[(1-ethyl-1H-pyrazol-4-yl)amino]-5-nitropyrimidin-4-yl}amino)bicyclo[2.2.1]hept-5-ene-2-carboxamide] |
| < 100 | < 100 | < 100 | NC(=O)[C@@H]1[C@H](Nc2nc(Nc3cnn(CCc4ccccc4)c3)ncc2Cl)[C@H]2C=C[C@@H]1C2 [Example 143, (1S,2S,3R,4R)-3-[(5-chloro-2-{[1-(2-phenylethyl)-1H-pyrazol-4-yl]amino}pyrimidin-4-yl)amino]bicyclo[2.2.1]hept-5-ene-2-carboxamide] |
| < 100 | < 100 | < 100 | NC(=O)[C@@H]1[C@H](Nc2nc(Nc3cnn(Cc4ccccc4)c3)ncc2Cl)[C@H]2C=C[C@@H]1C2 [Example 144, (1S,2S,3R,4R)-3-({2-[(1-benzyl-1H-pyrazol-4-yl)amino]-5-chloropyrimidin-4-yl}amino)bicyclo[2.2.1]hept-5-ene-2-carboxamide] |
| < 100 | < 100 | < 100 | NC(=O)[C@@H]1[C@H](Nc2nc(Nc3cnn(CCc4ccccc4)c3)ncc2Br)[C@H]2C=C[C@@H]1C2 [Example 148, (1S,2S,3R,4R)-3-[(5-bromo-2-{[1-(2-phenylethyl)-1H-pyrazol-4-yl]amino}pyrimidin-4-yl)amino]bicyclo[2.2.1]hept-5-ene-2-carboxamide] |
